This is an account of results in US6962900B2, “Pharmaceutical being used for treating HIV infection, the composition and uses thereof” (priority 2001, dated 2005).

One series addresses T1, HIV-1 gp160HXB (Human immunodeficiency virus type 1 group M subtype B, UniProt P04578).
T1 construct: expressed in transfected cells; host or cells: 293T cells
As to the kind of experiment: cell-cell fusion assay (luciferase reporter, synplasm formation induced by HIV-1 gp160HXB). It is filed as cell-based. Background: In a reporter assay the amount or activity of a reporter protein is the signal.

Another series has as its target T2, gp41 N-peptide (Human immunodeficiency virus type 1 group M subtype B, UniProt P04578).
T2 construct: The peptide solution containing Fusonex and gp41 N-peptide (35-70) was measured
As to the kind of experiment: stability by melting curve (circular dichroism) of peptide complexed with gp41 N-peptide. It is filed as physicochemical, HIV-1.

The test system of the next series is HIV. The following applies: first and second stages of clinical trials; cited from earlier work.

Entries after “also recorded” stand apart in the source; their conditions may differ. Peptide text beside a SMILES is read from it.

T2 sequence (P04578 546-581): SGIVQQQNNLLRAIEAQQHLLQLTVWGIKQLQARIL
T1 sequence (P04578 512-856): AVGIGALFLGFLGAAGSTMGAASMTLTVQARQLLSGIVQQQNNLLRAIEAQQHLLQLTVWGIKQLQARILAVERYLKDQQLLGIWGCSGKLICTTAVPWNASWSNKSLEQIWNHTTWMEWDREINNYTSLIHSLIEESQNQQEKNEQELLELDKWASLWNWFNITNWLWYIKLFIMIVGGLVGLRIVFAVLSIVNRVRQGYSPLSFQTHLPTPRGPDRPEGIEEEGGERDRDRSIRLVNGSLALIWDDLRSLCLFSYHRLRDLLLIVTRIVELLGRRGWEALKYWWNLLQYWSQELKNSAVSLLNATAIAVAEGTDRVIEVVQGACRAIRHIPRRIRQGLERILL
Description for HIV-1 gp160HXB: The specific experiment methods are as follows: The T7 promoter was inserted into the pSP64 upstream sequence of the cloning site to assemble a luciferase reporter gene plasmid—Pst7luc. The internal ribozyme entry site (IRES) of encephalomyocarditis virus (CMCV) was linked with the 5′-terminal of luciferase gene as well as the downstream area of T7 promoter. CD4 gene, T7 polymerase gene, and HIV-1 gp160HXB gene were subcloned into the mammalian expression plasmid—PMT3.
In a 10 cm culture dish, the 293T cells were transferred by Calcium Phosphate Method. Equal quantities of gp160HXB gene and T7 polymerase gene were used to transfect the effector cells, and pSP64 and CD4 gene were used to transfect the target cells. The PMT3 plasmid in the absence of gp160HXB or CD4 gene was set as a negative control.
The cells with non-serous DMEM were rinsed, after the DNA precipitate was added. The cells were cultured for 30-40 minutes at 37° C. in 9 ml/dish non-serous DMEM. […]
The solution as a stock solution was put to serial dilution in culture medium before use. […] Two minutes after adding luciferase substrate to the black 96-well culture plate, measure the chemical fluorescence intensity with Spex fluorolog-3 fluorimeter, the emission wavelength being 552 nm and slit breadth being 7 mm. The average and standard deviation were calculated from the three data of each concentration point.
Protocol for gp41 N-peptide: This experiment determined the stability of a polypeptide by measuring its melting curve at different temperatures. The experiment was carried out on Aviv 62A DS circular dichroism spectrum apparatus. The temperature range for heating peptide solution was from 20° C. to 95° C.

One may read the IC50 as the concentration needed to halve the response being measured. Higher therefore signals lower potency. For the compound `CC[C@H](C)[C@H](NC(=O)[C@H](CCC(=O)O)NC(=O)[C@H](CCCNC(=N)N)NC(=O)[C@H](CCC(=O)O)NC(=O)[C@H](Cc1c[nH]c2ccccc12)NC(=O)[C@@H](NC(=O)[C@H](CCC(=O)O)NC(=O)[C@H](Cc1c[nH]c2ccccc12)NC(=O)[C@H](CO)NC(C)=O)[C@@H](C)O)C(=O)N[C@@H](CCC(=O)O)C(=O)N[C@@H](CC(N)=O)C(=O)N[C@@H](Cc1ccc(O)cc1)C(=O)N[C@H](C(=O)N[C@@H](CCCCN)C(=O)N[C@@H](CCC(N)=O)C(=O)N[C@H](C(=O)N[C@@H](Cc1ccc(O)cc1)C(=O)N[C@@H](CCCCN)C(=O)N[C@H](C(=O)N[C@@H](CC(C)C)C(=O)N[C@@H](CCC(=O)O)C(=O)N[C@@H](CCC(=O)O)C(=O)N[C@@H](CO)C(=O)N[C@@H](CCC(N)=O)C(=O)N[C@@H](CCC(=O)O)C(=O)N[C@@H](CCC(N)=O)C(=O)N[C@@H](CCC(N)=O)C(=O)N[C@@H](CC(=O)O)C(=O)N[C@@H](CCCNC(=N)N)C(=O)N[C@@H](CC(N)=O)C(=O)N[C@@H](CCC(=O)O)C(=O)N[C@@H](CCCCN)C(=O)N[C@@H](CC(=O)O)C(=O)N[C@@H](CC(C)C)C(=O)N[C@@H](CC(C)C)C(=O)N[C@@H](CCC(=O)O)C(N)=O)[C@@H](C)CC)[C@@H](C)CC)[C@@H](C)O` [Fusonex] (Ac-SWETWEREIENYTKQIYKILEESQEQQDRNEKDLLE-NH2), half-maximal inhibition against HIV-1 gp160HXB (IC50) required 1.2 ± 0.2 nM. The “inhibiting activity compared with T-20 (cell fusion induced by HIV-1 gp160HXB)” value against HIV-1 gp160HXB (at the same concentration, FIG. 5) is on record as “better inhibiting activity than T-20”. For the same compound, the “stability compared with T-20 (melting curve)” value at gp41 N-peptide (FIG. 4) is “higher than that of T-20; also recorded: more stable than T-20”. Further, the 50% melting temperature on gp41 N-peptide (heating 20° C. to 95° C.) worked out at 70 °C.
Regarding enfuvirtide, the “toxicity against the spinal cord” value with HIV is “no toxicity against the spinal cord”.
